Literature values as cited in patent US9079837B2, “Water-soluble fluorescent fullerene derivative, and preparation method thereof” (KOREA RESEARCH INSTITUTE OF BIOSCIENCE AND BIOTECHNOLOGY, priority 2010, dated 2015).
≈ marks a conversion by molar mass, not a printed value. Where a name gives a salt, the structure may show the parent alone. Read-outs that look alike come from different tables or passages of the source.

What was measured:
[1] = for fluorescence quantum yield: literature value (J. Am. Chem. Soc. 1993, 1994), room temperature
[2] = water; Sivaraman et al., J. Org. Chem. 1992

Row | fluorescence quantum yield of standard ([1]; standard value) | Compound | fluorescence quantum yield ([1]; listed as fullerenes) | fluorescence quantum yield ([1]; listed as general fullerene) | solubility [2] [ng/mL]
1 |  | c12c3c4c5c1c1c6c7c2c2c8c3c3c9c4c4c%10c5c5c1c1c6c6c%11c7c2c2c7c8c3c3c8c9c4c4c9c%10c5c5c1c1c6c6c%11c2c2c7c3c3c8c4c4c9c5c1c1c6c2c3c41 [C60 fullerene, buckminster fullerene (C60)] | about 1×10^−4 | 1×10^−4 | 1.3e-05 (≈ 1.8e-05 nM)
2 | 55×10^−2 | C=C[C@H]1C[N@@]2CC[C@H]1C[C@H]2[C@H](O)c1ccnc2ccc(OC)cc12 [quinine sulfate] |  |  | 
